Test results as given in US8003688B2, “Method of treating symptoms of common cold, allergic rhinitis and infections relating to the respiratory tract” (ImmuPharm Aps, priority 2000, dated 2011).

Legend:
[1] = tested on: rhinovirus (1A, 15 or 39); assay: Antiviral activity against rhinovirus in WISH cells measured via the MTS-system; type: cell-based; conditions: challenge virus, MTS read-out, Quercetin at levels not toxic to the cells
Experimental: Rhinovirus 1A, rhinovirus 15 and rhinovirus 39 were titrated according to the tetra zolium salt (MTS)-method (Berg et al., 1989; Berg and Owen, 2001a, Hansen et al., 1989). WISH cells were seeded in a micro tray at 3000 cells per well and incubated at 37° C., 5% CO2 overnight; the following morning the medium Was replaced with 10-fold dilutions of either rhinovirus 1A, rhinovirus 15 or rhinovirus 39, respectively, in fresh medium and the trays were incubated 4-5 days at 33° C.; a microscopical examination confirmed that the CytoPathogenic Effect (CPE) was fully developed (CPE equal to 100%). […] To quantitate the CPE in terms of % destruction, MTS (Berg and Owen, 2001a) was added to all cultures and after 3 h incubation at 37° C. (without CO2) the trays were read in a scanner as previuosly described (Berg et al, 1989, Hansen et al., 1989). […]
WISH cells were seeded in wells in a microtray and incubated for 24 h at 34° C., 5% CO2; the medium was replaced with fresh medium comprising 2-fold dilutions of ZnGluconate (diluted 1:10 from a 1% stock dilutions) and incubated further for […] at 33° C., 5% CO2; on the following day challenge virus was added and after 3-5 days at 33° C., 5% , CO2, MTS was added and the microtray was measured in an OD-scanner (Berg et al., 1989; Hansen et al., 1989). […]

WISH cells = assay: Toxicity to WISH cells; type: cell-based
Experimental: (§1) An experiment similar to Example 3 was carried out in which various, but constant concentrations of either Troxerutin or Veneruton or other relevant derivatives were added together with the 2-fold dilutions of interferon to WISH cells. A typical example from this series of experiments yielded no potentiation of the interferon system, (<1%) at all at Troxerutin levels below 2.5 mg/ml. Troxerutin concentrations higher than 2.5 mg/ml are toxic to the cells.

[2] = tested on: Rhino Virus (1A, 15 or 39); assay: Potentiation of interferon antiviral activity vs. rhino virus in WISH cells; type: cell-based, rhinovirus; conditions: Troxerutin levels below 2.5 mg/ml added with 2-fold dilutions of interferon
Experimental: 3.000 WISH cells were seeded in a microtray and on the following morning, the medium was replaced with 2-fold dilutions (from a 0-30 units/ml stock solution) of HuIFN-α-2b (Intron A) in fresh medium comprising 2% serum. After incubation overnight, the medium was replaced with fresh medium comprising challenge virus and incubated at 33° C., 5% CO2 for 3-5 days and processed further as described in Example 2.
as §1

SMILES	protection against rhinovirus [1]	concentrations toxic to the cells (WISH cells)	potentiation of the interferon system [2]
O=C([O-])[C@H](O)[C@@H](O)[C@H](O)[C@H](O)CO.O=C([O-])[C@H](O)[C@@H](O)[C@H](O)[C@H](O)CO.[Zn+2] [ZnGluconate]	< 2%		
C[C@@H]1O[C@@H](OC[C@H]2O[C@@H](Oc3c(-c4ccc(OCCO)c(OCCO)c4)oc4cc(OCCO)cc(O)c4c3=O)[C@H](O)[C@@H](O)[C@@H]2O)[C@H](O)[C@H](O)[C@H]1O [Troxerutin, troxerutin]		higher than 2.5 mg/ml	< 1%
